In the assay the target is T1, rChAT (recombinant choline acetyltransferase) (Homo sapiens, UniProt P28329).
T1 sequence (P28329 119-748): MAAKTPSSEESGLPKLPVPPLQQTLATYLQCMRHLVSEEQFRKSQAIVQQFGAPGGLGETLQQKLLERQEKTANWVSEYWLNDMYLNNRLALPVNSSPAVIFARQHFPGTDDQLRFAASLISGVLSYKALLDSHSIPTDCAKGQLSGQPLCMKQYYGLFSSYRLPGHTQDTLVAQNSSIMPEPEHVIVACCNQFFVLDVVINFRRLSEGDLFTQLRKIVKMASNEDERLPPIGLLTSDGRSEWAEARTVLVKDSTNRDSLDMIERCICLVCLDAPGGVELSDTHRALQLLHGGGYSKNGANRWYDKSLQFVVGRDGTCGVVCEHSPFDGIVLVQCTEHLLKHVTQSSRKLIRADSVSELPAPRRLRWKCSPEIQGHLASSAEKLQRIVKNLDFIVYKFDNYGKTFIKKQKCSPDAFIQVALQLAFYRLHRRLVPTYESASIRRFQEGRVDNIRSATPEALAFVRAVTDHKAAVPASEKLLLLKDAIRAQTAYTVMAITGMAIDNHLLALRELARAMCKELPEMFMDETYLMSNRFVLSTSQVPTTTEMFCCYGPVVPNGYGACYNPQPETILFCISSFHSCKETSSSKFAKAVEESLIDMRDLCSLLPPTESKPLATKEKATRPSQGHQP
The assay is described as follows: colorimetric ChAT assay. It counts as biochemical.

Consider one compound from paper PMC10922394 (Journal of internal medicine, 2023).

What is called IC50 is the concentration at which inhibition is half-maximal.

The structures appear in SMILES notation.

On to `C[N+](C)(C)CCC(=O)c1cccc2ccccc12` [alpha-NETA], for which the IC50 was 148 nM.
